This note sets out measurements from paper PMC2742306 (Molecular cell, 2009).

Marks after values point to notes of the source that are not given here. Residues, ends and D or L forms follow the SMILES beside them. No end group written: not given here.

The target in assay [1] is T1, wild-type DegS (Escherichia coli, UniProt P0AEE3). The experiment in a line: OMP-peptide activation of RseA cleavage by wild-type DegS. The class given is biochemical, E. coli. Conditions: for Hill Constant (peptide activation): 200 μM RseA.
T1 sequence (P0AEE3 27-355): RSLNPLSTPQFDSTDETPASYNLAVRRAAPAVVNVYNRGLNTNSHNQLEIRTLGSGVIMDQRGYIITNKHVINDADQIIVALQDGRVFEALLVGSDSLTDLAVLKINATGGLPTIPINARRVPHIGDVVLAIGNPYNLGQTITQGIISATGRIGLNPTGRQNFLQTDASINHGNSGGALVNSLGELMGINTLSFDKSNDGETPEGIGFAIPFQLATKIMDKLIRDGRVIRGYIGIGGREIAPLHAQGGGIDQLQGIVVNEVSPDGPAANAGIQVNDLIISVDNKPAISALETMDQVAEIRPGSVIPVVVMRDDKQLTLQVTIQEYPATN
For assay [2], the target named is T2, K243D mutant of DegS (Escherichia coli, UniProt P0AEE3, K243D). Put plainly: OMP-peptide activation of RseA cleavage by K243D DegS. Conditions: K243D. The assay is classed as biochemical, E. coli.
The target of assay [3] is T3, D320A DegS (Escherichia coli, UniProt P0AEE3, D320A). The experiment in a line: OMP-peptide activation of RseA cleavage by D320A DegS. Conditions: D320A; for Hill Constant (peptide activation): 200 μM RseA. The class given is biochemical, E. coli.
The target of assay [4] is T1, wild-type DegS. The class given is biochemical, E. coli. To be noted: for L0, equilibrium constant T/R of unliganded enzyme / KTP/KRP / kr, rate constant for cleavage of RseA by substrate-bound R-state subunits: MWC global fit; for L0, equilibrium constant T/R of unliganded enzyme: enzyme parameter, peptide-independent; for KTP/KRP: peptide preference for relaxed state; for kr, rate constant for cleavage of RseA by substrate-bound R-state subunits: same value for all enzymes and peptides.

Assay [5] concerns the target T2, K243D mutant of DegS. The experiment in a line: Global fit to MWC allosteric model, K243D DegS. The class given is biochemical, E. coli. Conditions: K243D, MWC global fit.
The target in assay [6] is T3, D320A DegS. The experiment in a line: Global fit to MWC allosteric model, D320A DegS. The assay is classed as biochemical, E. coli. Conditions: D320A, MWC global fit; for KRS, dissociation constant of RseA substrate for R-state subunit / KTS, dissociation constant of RseA substrate for T-state subunit: not peptide, binding; for L0, equilibrium constant T/R of unliganded enzyme: enzyme parameter, peptide-independent; for KTP/KRP: peptide preference for relaxed state; for kr, rate constant for cleavage of RseA by substrate-bound R-state subunits: same value for all enzymes and peptides.

Assay [7] addresses T1, wild-type DegS. The class given is biochemical, E. coli. To be noted: wild-type DegS 0.9 μM trimer; 20 μM rhodamine-FP; saturating peptide.
The target in assay [8] is DegS K243D (residues 27–355, N-terminal His6 tag) (E. coli) (UniProt P0AEE3). The experiment in a line: enzyme kinetics.
The target in assay [9] is T4, DegS D320A (residues 27–355, N-terminal His6 tag) (E. coli, UniProt P0AEE3 27-355, D320A).
T4 sequence (looked up): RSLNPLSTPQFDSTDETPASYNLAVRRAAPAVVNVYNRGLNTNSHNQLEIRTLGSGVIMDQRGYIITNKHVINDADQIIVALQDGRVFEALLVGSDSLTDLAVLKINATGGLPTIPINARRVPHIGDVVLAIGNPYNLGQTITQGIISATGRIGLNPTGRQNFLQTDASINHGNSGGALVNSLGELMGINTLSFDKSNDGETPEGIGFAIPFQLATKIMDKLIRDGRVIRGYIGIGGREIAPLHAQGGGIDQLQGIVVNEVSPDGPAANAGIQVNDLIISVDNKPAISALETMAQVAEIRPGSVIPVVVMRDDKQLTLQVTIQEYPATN
Put plainly: enzyme kinetics.

Assay [10] has as its target T5, DegS K243D (residues 27–355, N-terminal His6 tag) (E. coli, UniProt P0AEE3 27-355, K243D).
T5 sequence (looked up): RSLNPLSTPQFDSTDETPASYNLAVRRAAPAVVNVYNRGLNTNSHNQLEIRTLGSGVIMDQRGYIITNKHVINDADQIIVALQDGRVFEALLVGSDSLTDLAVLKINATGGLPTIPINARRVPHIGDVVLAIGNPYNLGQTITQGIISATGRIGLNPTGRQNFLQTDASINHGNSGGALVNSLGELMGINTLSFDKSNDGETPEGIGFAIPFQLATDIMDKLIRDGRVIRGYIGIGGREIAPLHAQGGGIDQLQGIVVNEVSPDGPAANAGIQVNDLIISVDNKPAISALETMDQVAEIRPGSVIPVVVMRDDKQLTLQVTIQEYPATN
Put plainly: enzyme kinetics.

Setting [11] is: saturating peptide, single sub-KM RseA concentration.

With `NC(=O)CC[C@H](NC(=O)[C@@H](N)Cc1ccc(O)cc1)C(=O)N[C@@H](Cc1ccccc1)C(=O)O` [YQF] (H-Tyr-Gln-Phe-OH), in [1] (wild-type DegS), the “displacement in concentration between YYF and YQF activation curves” value is around 10 fold; the “Hill Constant (peptide activation)” value came out at 1.6 ± 0.1.

DNRDGNVYQF [DNRDGNVYQF]: the “Hill Constant (peptide activation)” value in [1] (wild-type DegS) is listed as 1.6 ± 0.1; in [2] (200 μM RseA) it was 1.3 ± 0.1; in [3], 1.2 ± 0.1. Besides, the “RseA cleavage relative to wild-type DegS” value in assay [2] (setting [11]) and in assay [3] (setting [11]) was “about three-fold faster” each time. Also, the “L0, equilibrium constant T/R of unliganded enzyme” value (“L0, equilibrium constant T/R” for short) in assay [4] worked out at 15000; in [5] (enzyme parameter, peptide-independent), 180; in assay [6] it was 350. The KTP/KRP in assay [4] came to 6.1; in assay [5] (peptide preference for relaxed state), 1.9; in assay [6], 2.8. Moreover, the “kr, rate constant for cleavage of RseA by substrate-bound R-state subunits” value (shortened to “kr … by substrate-bound R-state subunits”) was 3.3 s⁻¹ in assay [4]; 3.3 s⁻¹ in [5] (same value for all enzymes and peptides); 3.3 s⁻¹ in assay [6]. For the same molecule, the “KRS, dissociation constant of RseA substrate for R-state subunit” value was 150 µM in assay [5] (RseA, not peptide, binding) and 150 µM in assay [6]. The “KTS, dissociation constant of RseA substrate for T-state subunit” value in [5] (RseA, not peptide, binding) is 505 µM; in assay [6], 505 µM.

EDGEDGDYYF [EDGEDGDYYF]: the “Hill Constant (peptide activation)” value in [1] (wild-type DegS) amounted to 1.3 ± 0.1. Besides, the “Hill Constant (peptide activation)” value in assay [3] is 1.3 ± 0.1. Further, the “rate of rhodamine-FP modification in presence of peptide (order)” value in assay [7] is “slower still”. Moreover, in [6], the “KRS, dissociation constant of RseA substrate for R-state subunit” value was found to be 150 µM; the “KTS, dissociation constant of RseA substrate for T-state subunit” value amounted to 505 µM; the “L0, equilibrium constant T/R” value is on record as 350; the KTP/KRP is given as 2.1. Moreover, the “kr … by substrate-bound R-state subunits” value in assay [6] turned out to be 3.3 s⁻¹.

As a reminder, the EC50 is the concentration at which the effect is half-maximal. Higher therefore signals a less potent agent. Consider KRRKGKVYYF [KRRKGKVYYF], for which the EC50 in [1] was at most 1000 nM. Also, the “Hill Constant (peptide activation)” value in [1] (wild-type DegS) is ~1.2 ^a. Moreover, in [1] (wild-type DegS, among tested peptides), the “apparent affinity (in words)” value is “highest apparent affinity”. Also, the “maximal activation (in words)” value in assay [1] (wild-type DegS, saturating peptide) is recorded as “lowest maximal activation”. Also, the “rate of rhodamine-FP modification in presence of peptide (order)” value in assay [7] is given as “slowest”. In [4], the “L0, equilibrium constant T/R” value is reported as 15000; the KTP/KRP came out at 3.3; the “kr … by substrate-bound R-state subunits” value came out at 3.3 s⁻¹. Besides, in assay [4] (saturating peptide and saturating RseA substrate, MWC model), the “DegS molecules in active conformation” value is 9%.

For the molecule YYF tripeptide, in assay [8], the KRP (dissociation constant for an R-state subunit) turned out to be 1.24 µM and the KTP (dissociation constant for a T-state subunit) is 3.76 µM.

B1: OMP peptide EDGEDGDYYF (peptide)
peptide: EDGEDGDYYF
Regarding B1, in [9], the “KRP (dissociation constant for an R-state subunit)” value was 4.02 µM and the “KTP (dissociation constant for a T-state subunit)” value was determined as 8.5 µM.

B2: OMP peptide DNRDGNVYYF (peptide)
peptide: DNRDGNVYYF
For B2, in [10], the “KRP (dissociation constant for an R-state subunit)” value amounted to 0.07 µM and the “KTP (dissociation constant for a T-state subunit)” value came out at 0.14 µM. Moreover, in [9], the “KRP (dissociation constant for an R-state subunit)” value was 0.06 µM and the “KTP (dissociation constant for a T-state subunit)” value is 0.2 µM.

B3: OMP peptide DNRDGNVYQF (peptide)
peptide: DNRDGNVYQF
With B3, in assay [10], the “KRP (dissociation constant for an R-state subunit)” value amounted to 1.64 µM and the “KTP (dissociation constant for a T-state subunit)” value turned out to be 3.19 µM. In addition, in [9], the “KRP (dissociation constant for an R-state subunit)” value was determined as 1.09 µM and the “KTP (dissociation constant for a T-state subunit)” value was 2.98 µM.
